Legend:
[1] = target: T1, full-length beta-Catenin (Uniprot ID P35222) (Homo sapiens, UniProt P35222); test: Fluorescence polarization IC50 (beta-catenin / 5FAM-TCF4 10-53 competition); type: binding; conditions: fluorescence polarization; read-out: beta-Catenin FP IC50
T1 construct: 10 nM full-length beta-Catenin (Uniprot ID P35222)
T1 sequence (P35222 1-781): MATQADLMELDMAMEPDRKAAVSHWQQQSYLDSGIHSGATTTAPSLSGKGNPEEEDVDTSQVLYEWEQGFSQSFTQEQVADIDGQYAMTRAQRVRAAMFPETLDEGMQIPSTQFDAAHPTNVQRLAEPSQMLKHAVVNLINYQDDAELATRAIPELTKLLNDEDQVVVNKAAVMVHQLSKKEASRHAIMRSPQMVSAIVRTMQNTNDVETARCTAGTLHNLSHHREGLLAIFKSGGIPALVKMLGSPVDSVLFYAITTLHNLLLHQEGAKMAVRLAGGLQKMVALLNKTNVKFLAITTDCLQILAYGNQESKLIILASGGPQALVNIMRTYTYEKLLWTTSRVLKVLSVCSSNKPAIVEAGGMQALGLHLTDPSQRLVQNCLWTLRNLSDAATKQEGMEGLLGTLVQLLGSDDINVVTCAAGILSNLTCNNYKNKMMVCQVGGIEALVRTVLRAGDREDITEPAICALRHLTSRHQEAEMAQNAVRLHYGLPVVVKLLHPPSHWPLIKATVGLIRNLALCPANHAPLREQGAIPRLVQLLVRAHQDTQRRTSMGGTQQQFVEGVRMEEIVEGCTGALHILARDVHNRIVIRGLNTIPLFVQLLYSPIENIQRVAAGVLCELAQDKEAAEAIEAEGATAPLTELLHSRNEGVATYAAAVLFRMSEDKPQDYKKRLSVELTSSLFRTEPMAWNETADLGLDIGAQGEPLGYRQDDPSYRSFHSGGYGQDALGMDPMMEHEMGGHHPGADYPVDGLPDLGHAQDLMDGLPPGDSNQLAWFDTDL

[2] = target: T2, beta-catenin/TCF4 engagement (Homo sapiens, UniProt P35222); test: Nano-BRET target engagement assay (B-cat-Halo & TCF4-Luc in HEK293 cells); type: cell-based; conditions: read-out: NanoBRET Abs IC50
T2 construct: expressed in transfected cells; host or cells: HEK293
T2 sequence (P35222 1-781): T1 sequence (P35222 1-781)

Structure (SMILES) | IC50 [1] [nM] | IC50 [2] [nM]
CC(=O)N1CCC[C@]12CC=CCCCC1(CCCC=CCCCOC(=O)N3CC[C@@](C(=O)N[C@@H](Cc4ccsc4)C(=O)N[C@@H](Cc4csc5ccccc45)C(=O)N[C@@H](CCC(N)=O)C(N)=O)(C3)NC(=O)[C@H](CC(C)C)NC(=O)[C@H](Cc3cccc(C(=O)O)c3)NC(=O)[C@H](C)NC(=O)[C@H](C)NC(=O)[C@H](Cc3ccc(O)cc3)NC(=O)[C@H](CC(=O)O)NC1=O)NC(=O)[C@H](CC(C)(C)C)NC(=O)[C@H](CC(=O)O)NC2=O (stereo partly drawn) [I-2126, Ac-PL3-Asp-Npg-B5-Asp-Tyr-Ala-Ala-3COOHF-Leu-PyrS2-3Thi-BztA-Gln-NH2] | 68 | 29500
CC(=O)N1CCC[C@]12CC=CCCCC1(CCCC=CCCCOC(=O)N3CC[C@@](C(=O)N[C@@H](Cc4ccsc4)C(=O)N[C@@H](Cc4csc5ccccc45)C(=O)N[C@@H](C)C(N)=O)(C3)NC(=O)[C@H](CC(N)=O)NC(=O)[C@H](Cc3ccccc3)NC(=O)[C@H](C)NC(=O)[C@H](C)NC(=O)[C@H]([C@@H](C)O)NC(=O)[C@H](CC(N)=O)NC1=O)NC(=O)[C@H](CC(C)(C)C)NC(=O)[C@H](CC(=O)O)NC2=O (stereo partly drawn) [I-2142, Ac-PL3-Asp-Npg-B5-Asn-Thr-Ala-Ala-Phe-Asn-PyrS2-3Thi-BztA-Ala-NH2] | 271 | > 20000
CC(=O)N1CCC[C@]12CC=CCC1(CC=CCCCOC(=O)N3CC[C@@](C(=O)N[C@@H](Cc4ccsc4)C(=O)N[C@@H](Cc4csc5ccccc45)C(=O)N[C@@H](CCC(N)=O)C(N)=O)(C3)NC(=O)[C@H](CC(C)C)NC(=O)[C@H](Cc3ccccc3)NC(=O)[C@H](C)NC(=O)[C@H](C)NC(=O)[C@H](CC(=O)O)NC(=O)[C@H](CC(=O)O)NC1=O)NC(=O)[C@H](CC(C)(C)C)NC(=O)[C@H](CC(=O)O)NC2=O (stereo partly drawn) [I-2156, Ac-PL3-Asp-Npg-B3-Asp-Asp-Ala-Ala-Phe-Leu-PyrS2-3Thi-BztA-Gln-NH2] | 387 | > 20000
CC(=O)N1CCC[C@]12CCCCC1(CCCCCCCOC(=O)N3CC[C@@](C(=O)N[C@@H](Cc4ccsc4)C(=O)N[C@@H](Cc4csc5ccccc45)C(=O)N[C@@H](CCC(N)=O)C(N)=O)(C3)NC(=O)[C@H](CC(C)C)NC(=O)[C@H](Cc3ccccc3)NC(=O)[C@H](C)NC(=O)[C@H](C)NC(=O)[C@H](CC(=O)O)NC(=O)[C@H](CC(=O)O)NC1=O)NC(=O)[C@H](CC(C)(C)C)NC(=O)[C@H](CC(=O)O)NC2=O (stereo partly drawn) [I-2161, Ac-PL3-Asp-Npg-B3-Asp-Asp-Ala-Ala-Phe-Leu-PyrS3-3Thi-BztA-Gln-NH2] | 855 | > 20000
CC(=O)N1CCC[C@]12CCCCC1(CCCCCCCCOC(=O)N3CC[C@](C(=O)N[C@@H](Cc4ccsc4)C(=O)N[C@@H](Cc4csc5ccccc45)C(=O)N[C@@H](CCC(N)=O)C(N)=O)(C3)NC(=O)[C@H](CC(C)C)NC(=O)[C@H](Cc3ccccc3)NC(=O)[C@H](C)NC(=O)[C@H](C)NC(=O)[C@H](CC(=O)O)NC(=O)[C@H](CC(=O)O)NC1=O)NC(=O)[C@H](CC(C)(C)C)NC(=O)[C@H](CC(=O)O)NC2=O (stereo partly drawn) [I-2162, Ac-PL3-Asp-Npg-B3-Asp-Asp-Ala-Ala-Phe-Leu-PyrS4-3Thi-BztA-Gln-NH2] | 1160 | > 20000
CC(=O)N1CCC[C@]12CC=CCCCC1(CCCC=CCCCOC(=O)N3CC[C@@](C(=O)N[C@@H](Cc4ccccc4)C(=O)N[C@@H](Cc4csc5ccccc45)C(=O)N[C@@H](CCO)C(N)=O)(C3)NC(=O)[C@H](CC(N)=O)NC(=O)[C@H](Cc3ccccc3)NC(=O)[C@H](C)NC(=O)[C@H](CCCCNC(C)C)NC(=O)[C@H](CCC(N)=O)NC(=O)[C@H](CC(=O)O)NC1=O)NC(=O)[C@H](CC1CCCCC1)NC(=O)[C@H](CC(N)=O)NC2=O (stereo partly drawn) [I-2167, Ac-PL3-Asn-Cha-B5-Asp-Gln-iPrLys-Ala-Phe-Asn-PyrS2-Phe-BztA-Hse-NH2] | 199 | > 20000
CC(=O)N1CCC[C@]12CC=CCCCC1(CCCC=CCCCOC(=O)N3CC[C@@](C(=O)N[C@@H](Cc4ccccc4C(N)=O)C(=O)N[C@@H](Cc4csc5ccccc45)C(=O)N[C@@H](CCO)C(N)=O)(C3)NC(=O)[C@H](CC(N)=O)NC(=O)[C@H](Cc3ccccc3)NC(=O)[C@H](C)NC(=O)[C@H](CCCCNC(C)C)NC(=O)[C@H](CCC(N)=O)NC(=O)[C@H](CC(=O)O)NC1=O)NC(=O)[C@H](CC1CCCCC1)NC(=O)[C@H](CC(N)=O)NC2=O (stereo partly drawn) [I-2168, Ac-PL3-Asn-Cha-B5-Asp-Gln-iPrLys-Ala-Phe-Asn-PyrS2-2cbmf-BztA-Hse-NH2] | 212 | > 20000

Stronger by IC50 [1], values ahead:

IC50 [1] [nM] | IC50 [2] [nM] | Structure (SMILES)
29 | > 20000 | CC(=O)N1CCC[C@]12CC=CCCCC1(CCCC=CCCCOC(=O)N3CC[C@@](C(=O)N[C@@H](Cc4ccsc4)C(=O)N[C@@H](Cc4csc5ccccc45)C(=O)N[C@@H](CCC(N)=O)C(N)=O)(C3)NC(=O)[C@H](CC(N)=O)NC(=O)[C@H](Cc3cccc(C(=O)O)c3)NC(=O)[C@H](C)NC(=O)[C@H](C)NC(=O)[C@H](Cc3c[nH]cn3)NC(=O)[C@H](CC(=O)O)NC1=O)NC(=O)[C@H](CC(C)(C)C)NC(=O)[C@H](CC(=O)O)NC2=O (stereo partly drawn) [I-2119, Ac-PL3-Asp-Npg-B5-Asp-His-Ala-Ala-3COOHF-Asn-PyrS2-3Thi-BztA-Gln-NH2]
29 | 27000 | CC(=O)N1CCC[C@]12CC=CCCCC1(CCCC=CCCCOC(=O)N3CC[C@@](C(=O)N[C@@H](Cc4ccsc4)C(=O)N[C@@H](Cc4csc5ccccc45)C(=O)N[C@@H](CCC(N)=O)C(N)=O)(C3)NC(=O)[C@H](CCO)NC(=O)[C@H](Cc3cccc(C(=O)O)c3)NC(=O)[C@H](C)NC(=O)[C@H](C)NC(=O)[C@H](Cc3c[nH]c4ccccc34)NC(=O)[C@H](CC(=O)O)NC1=O)NC(=O)[C@H](CC(C)(C)C)NC(=O)[C@H](CC(=O)O)NC2=O (stereo partly drawn) [I-2128, Ac-PL3-Asp-Npg-B5-Asp-Trp-Ala-Ala-3COOHF-Hse-PyrS2-3Thi-BztA-Gln-NH2]
12 | > 20000 | CC(=O)N1CCC[C@]12CC=CCCCC1(CCCC=CCCCOC(=O)N3CC[C@@](C(=O)N[C@@H](Cc4ccsc4)C(=O)N[C@@H](Cc4csc5ccccc45)C(=O)N[C@@H](CCC(N)=O)C(N)=O)(C3)NC(=O)[C@H](CCO)NC(=O)[C@H](Cc3cccc(C(=O)O)c3)NC(=O)[C@H](C)NC(=O)[C@H](C)NC(=O)[C@H](Cc3c[nH]cn3)NC(=O)[C@H](CC(=O)O)NC1=O)NC(=O)[C@H](CC(C)(C)C)NC(=O)[C@H](CC(=O)O)NC2=O (stereo partly drawn) [I-2121, Ac-PL3-Asp-Npg-B5-Asp-His-Ala-Ala-3COOHF-Hse-PyrS2-3Thi-BztA-Gln-NH2]
12 | 34400 | CC(=O)N1CCC[C@]12CC=CCCCC1(CCCC=CCCCOC(=O)N3CC[C@@](C(=O)N[C@@H](Cc4ccsc4)C(=O)N[C@@H](Cc4csc5ccccc45)C(=O)N[C@@H](CCC(N)=O)C(N)=O)(C3)NC(=O)[C@H](CC(C)C)NC(=O)[C@H](Cc3cccc(C(=O)O)c3)NC(=O)[C@H](C)NC(=O)[C@H](C)NC(=O)[C@H](Cc3c[nH]cn3)NC(=O)[C@H](CC(=O)O)NC1=O)NC(=O)[C@H](CC(C)(C)C)NC(=O)[C@H](CC(=O)O)NC2=O (stereo partly drawn) [I-2122, Ac-PL3-Asp-Npg-B5-Asp-His-Ala-Ala-3COOHF-Leu-PyrS2-3Thi-BztA-Gln-NH2]
12 | 26900 | CC(=O)N1CCC[C@]12CC=CCCCC1(CCCC=CCCCOC(=O)N3CC[C@@](C(=O)N[C@@H](Cc4ccsc4)C(=O)N[C@@H](Cc4csc5ccccc45)C(=O)N[C@@H](CCC(N)=O)C(N)=O)(C3)NC(=O)[C@H](CC(C)C)NC(=O)[C@H](Cc3cccc(C(=O)O)c3)NC(=O)[C@H](C)NC(=O)[C@H](C)NC(=O)[C@H](Cc3c[nH]cn3)NC(=O)[C@H](CC(=O)O)NC1=O)NC(=O)[C@H](CC(C)(C)C)NC(=O)[C@H](CC(=O)O)NC2=O (stereo partly drawn) [I-2123, Ac-PL3-Asp-Npg-B5-Asp-His-Ala-Ala-3COOHF-Leu-PyrS2-3Thi-BztA-Gln-NH2]
11 | 37200 | CC(=O)N1CCC[C@]12CC=CCCCC1(CCCC=CCCCOC(=O)N3CC[C@@](C(=O)N[C@@H](Cc4ccsc4)C(=O)N[C@@H](Cc4csc5ccccc45)C(=O)N[C@@H](CCC(N)=O)C(N)=O)(C3)NC(=O)[C@H](CCO)NC(=O)[C@H](Cc3cccc(C(=O)O)c3)NC(=O)[C@H](C)NC(=O)[C@H](C)NC(=O)[C@H](Cc3c[nH]cn3)NC(=O)[C@H](CC(=O)O)NC1=O)NC(=O)[C@H](CC(C)(C)C)NC(=O)[C@H](CC(=O)O)NC2=O (stereo partly drawn) [I-2120, Ac-PL3-Asp-Npg-B5-Asp-His-Ala-Ala-3COOHF-Hse-PyrS2-3Thi-BztA-Gln-NH2]
5 | 11100 | CC(=O)N1CCC[C@]12CC=CCCCC1(CCCC=CCCCOC(=O)N3CC[C@@](C(=O)N[C@@H](Cc4ccsc4)C(=O)N[C@@H](Cc4ccc(Cl)c(Cl)c4)C(=O)N[C@@H](CCC(N)=O)C(N)=O)(C3)NC(=O)[C@H](CC(N)=O)NC(=O)[C@H](Cc3ccccc3)NC(=O)[C@H](C)NC(=O)[C@H](C)NC(=O)[C@H](CC(=O)O)NC(=O)[C@H](CC(=O)O)NC1=O)NC(=O)[C@H](CC(C)(C)C)NC(=O)[C@H](CC(=O)O)NC2=O (stereo partly drawn) [I-2182, Ac-PL3-Asp-Npg-B5-Asp-Asp-Ala-Ala-Phe-Asn-PyrS2-3Thi-34C1F-Gln-NH2]

Reference: patent publication US20240116985A1, “STAPLED PEPTIDES AND METHODS THEREOF” (priority 2020, published 2024)
